SMILES strings stand for the structures.

This is an account of results in publication PMC3935609 (Biochemistry, 2013).

Experiment [1] addresses T1, GLIC (Gloeobacter violaceus ligand-gated ion channel) (Gloeobacter violaceus, UniProt Q7NDN8).
T1 sequence (Q7NDN8 44-359): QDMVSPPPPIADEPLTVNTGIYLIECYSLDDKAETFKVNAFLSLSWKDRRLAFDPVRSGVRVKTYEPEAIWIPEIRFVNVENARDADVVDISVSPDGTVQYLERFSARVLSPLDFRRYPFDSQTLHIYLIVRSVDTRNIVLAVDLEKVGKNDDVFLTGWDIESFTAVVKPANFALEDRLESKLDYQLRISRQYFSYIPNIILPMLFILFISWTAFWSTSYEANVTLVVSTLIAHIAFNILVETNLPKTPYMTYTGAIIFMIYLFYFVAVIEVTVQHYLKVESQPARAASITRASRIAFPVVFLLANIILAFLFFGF
Briefly: [3H]AziPm photoaffinity labeling of purified GLIC at pH […] with Edman sequencing. It is filed as cell-based.

The target of experiment [2] is T1, GLIC (Gloeobacter violaceus ligand-gated ion channel). In words: competition. The class given is cell-based.

As a reminder, the IC50 is the concentration that inhibits the measured activity by half. Lower therefore signals greater potency in that assay. Consider `CC(C)c1ccc(C2(C(F)(F)F)N=N2)cc1O` [AziPm, 2-isopropyl-5-[3-(trifluoromethyl)-3H-diazirin-3-yl]phenol], for which the IC50 in experiment [1] turned out to be 51.4 ± 5.3 µM.
In turn, `CC(C)c1cccc(C(C)C)c1O` [PPF, Propofol] returned an IC50 in experiment [2] of 21.4 ± 1.2 µM.
